“Also recorded” adds a separate entry of the source. Square brackets hold non-standard residues; d marks the D form. Peptide text beside a SMILES is read from it. * marks the point of attachment. Benzoyl(4-SiFtBu2) = CC(C)(C)[Si](F)(c1ccc(C(=O)*)cc1)C(C)(C)C; αMePhe(2-F) = C[C@](N)(Cc1ccccc1F)C(=O)O; hPhe = N[C@@H](CCc1ccccc1)C(=O)O; Dap = NC[C@H](N)C(=O)O; Aib = CC(C)(N)C(=O)O

On the set-up of data set [1]: method as in Gotthardt et al., 2007. To be noted: rats, pre-administration; ref Gotthardt et al., 2007; cited from earlier work.
The target of data set [2] is T1, human GLP-1 receptor (Homo sapiens, UniProt P43220). Briefly: Competitive binding (IC50) on HEK293-hGLP-1R cells with radioligand [Nle^14, [^125I]Tyr(3-I)^40]exendin-4. To be noted: w/o BSA, HBSS. Also on record: Dr. Timothy Kieffer (University of British Columbia); host or cells: HEK293.
T1 sequence (P43220 24-463): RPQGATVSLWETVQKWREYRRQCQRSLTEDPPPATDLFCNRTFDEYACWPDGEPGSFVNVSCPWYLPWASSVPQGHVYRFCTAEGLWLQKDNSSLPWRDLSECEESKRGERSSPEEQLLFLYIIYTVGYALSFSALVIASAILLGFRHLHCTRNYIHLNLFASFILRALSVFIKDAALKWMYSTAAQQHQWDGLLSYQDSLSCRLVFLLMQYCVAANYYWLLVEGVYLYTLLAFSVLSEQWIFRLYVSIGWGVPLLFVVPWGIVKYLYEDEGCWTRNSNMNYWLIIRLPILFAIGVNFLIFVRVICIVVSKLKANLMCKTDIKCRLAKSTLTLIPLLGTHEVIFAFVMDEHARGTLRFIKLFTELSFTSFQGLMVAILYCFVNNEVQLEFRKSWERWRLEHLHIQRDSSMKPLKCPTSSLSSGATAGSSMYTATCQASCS
For data set [3], the target named is T1, human GLP-1 receptor. Described as above. Also on record: Dr. Timothy Kieffer (University of British Columbia); host or cells: HEK293. To be noted: for IC50 ± SD (result in words): ligand range 10^-11 to 10^-5 M. As for the experimental part: Dr. Timothy Kieffer (University of British Columbia, Vancouver, Canada). Cells were cultivated in high glucose DMEM (25.0 mM D-glucose, 3.97 mM GlutaMAX; REF-number: 61965–026; Fisher Scientific GmbH, Schwerte, Germany) supplemented with 10% fetal bovine serum and 1 mM sodium pyruvate. Medium for stably transfected HEK293-hGLP-1R cells was constantly supplemented with 1 mg/mL Geneticin (G-418 Biochrom, Merck KgaA, Darmstadt, Germany) as selection antibiotic. The cell line was kept at 37 °C in a humidified 5% CO2 atmosphere. One day (24 ± 2 h) prior to all in vitro experiments, the cultivated HEK293-h-GLP-1R cells were harvested using a mixture of trypsin/ethylenediaminetetraacetic acid (0.05%/0.02%) in phosphate-buffered saline (PBS) (Gibco, Germany) and centrifuged at 1300 rpm (ca. 190×g) for 3 min at room temperature (Heraeus Megafuge 16, Thermo Fisher, Germany). After centrifugation, the supernatant was disposed and the cell pellet was resuspended in culture medium. Cells were counted with a Neubauer hemocytometer (Paul Marienfeld GmbH & Co. KG, Lauda-Königshofen, Germany) and seeded in 24-well plates. IC50 values were determined by transferring 1.50 × 10^5 cells/mL per well into 24-well plates.
Detailed information on affinity experiments is provided in the SI. In brief, competitive binding studies were determined on HEK293-hGLP-1R cells (1.50 × 10^5 cells in 1 mL/well) after incubation at 4 °C for 2 hours, using [^125I]Tyr(3-I)^40–3 (0.41 nM/well) as reference radioligand (n = 3).
Dr. Timothy J. Kieffer (University of British Columbia, Vancouver, Canada). Cells were cultivated in high glucose DMEM (25.0 mM D-glucose, 3.97 mM GlutaMAX; REF-number: 61965-026; Fisher Scientific GmbH, Schwerte, Germany) supplemented with 10% fetal bovine serum and 1 mM sodium pyruvate. Medium for stably transfected HEK293-hGLP-1R cells was constantly supplemented with 1 mg/mL Geneticin (G-418 Biochrom, Merck KgaA, Darmstadt, Germany) as selection antibiotic. The cell line was kept at 37 °C in a humidified 5% CO2 atmosphere. One day (24 ± 2 h) prior to all in vitro experiments, the cultivated cells were harvested using a mixture of trypsin/ethylenediaminetetraacetic acid (0.05%/0.02%) in phosphate-buffered saline (PBS) (Merck KgaA, Darmstadt, Germany) and centrifuged at 1300 rpm (ca. 190 × g) for 3 min at room temperature (Heraeus Megafuge 16, Thermo Fisher Scientific, Darmstadt, Germany). After centrifugation, the supernatant was disposed and the cell pellet was resuspended in culture medium. Cells were counted with a Neubauer hemocytometer (Paul Marienfeld GmbH & Co. KG, Lauda-Königshofen, Germany) and seeded in 24-well plates (Greiner Bio-One, Kremsmünster, Austria). IC50 values were determined by transferring 1.50 × 10^5 cells/mL per well into 24-well plates (Greiner Bio-One, Kremsmünster, Austria).
The culture medium was removed and the cells were washed with 500 µL of Hank’s balanced salt solution (HBSS) (Merck KGaA, Darmstadt, Germany), containing 1% bovine serum albumin (BSA) (Merck KGaA, Darmstadt, Germany). Afterwards, 200 µL of HBSS (1% BSA) were added to each well and equilibrated on ice (4 °C) for 15 min. 25 µL/well of either HBSS (1% BSA) (= control) or of solutions, containing the respective unlabeled ligand in increasing concentrations (10^-10 - 10^-4 M in HBSS) were added, followed by the addition of 25 µL of [Nle^14, [^125I]Tyr(3-I)^40]exendin-4 in HBSS (1% BSA) to each well. Experiments were carried out in triplicates for each concentration. The final concentrations of unlabeled ligand ranged from 10^-11 - 10^-5 M and the final radioligand concentration was 0.41 nM in all binding assays. The cells were incubated for two hours at 4 °C. Incubation was terminated by removal of the incubation medium. The cells were washed with 250 µL of HBSS (1% BSA) and the wash medium was combined with the respective supernatant. This fraction represents the amount of free radioligand. The cells were lysed by addition of 250 µL of 1 M aqueous NaOH. […]

A short description of data set [4]: Stability study of the reference radioligand stock solution (RCP by radio-RP-HPLC). It is filed as physicochemical. The protocol: ^125I-labeling. The radioiodinated reference ligand [Nle^14, [^125I]Tyr(3-I)^40]exendin-4 ([^125I]Tyr(3-I)^40–3) was prepared via the Iodogen method (Salacinski et al., [1981]), with some minor modifications. […] The solution was transferred to a vial, which has been precoated with 15.0 μg Iodogen (34.7 nmol, 139 eq.). Afterwards, 15 ± 5 MBq [^125I] NaI (74 MBq/nmol, 3.7 GBq/mL in 40 mM NaOH, Hartmann Analytic, Braunschweig, Germany) (5.00 μL, 250 pmol, 1.00 eq.) were added, the reaction solution was incubated for 15 min at r.t. and 150 μL thereof were purified by radio-RP-HPLC (0% B (2 min) ➔ 0–37.5% B (3 min) ➔ 37.5% B (35 min) ➔ 38% B (10 min), Method A*, 1 mL/min) to afford 3.15 MBq (48.8% RCY, > 99% RCP) of product [^125I]Tyr(3-I)^40–3. The radioligand was stored in the HPLC solvent (stock solution) at − 80 °C until further use. The radioligand stock solution was used to a maximum of 14 days to ensure a RCP of > 92% (Table 1 in the Additional file 1) and replaced by freshly prepared radioligand afterwards. Prior to the in vitro experiments, the radioligand was dissolved in HBSS (with or w/o 1% BSA) to achieve a final concentration of 0.41 nM in the respective assays. *Method A: solvent A = water + 0.1% TFA, solvent B = acetonitrile + 2% water + 0.1% TFA.
Table 1: Stability study of reference radioligand [^125I]Tyr(3-I)^40]-3, (n = 1).

For `NCCCC[C@H](N)C(=O)O` [L-lysine], the “decrease of kidney uptake of [^111In]In-DTPA-exendin-4” value in data set [1] was “did not show any effect”.
A word on the IC50: it is the concentration that gives 50% inhibition. The low end stands for higher potency, the high end for lower potency. Regarding `C[C@@H](O)[C@H](NC(=O)CNC(=O)[C@H](CCC(=O)O)NC(=O)C(C)(C)NC(=O)[C@@H](N)Cc1c[nH]cn1)C(=O)N[C@@](C)(Cc1ccccc1)C(=O)N[C@H](C(=O)N[C@@H](CO)C(=O)N[C@@H](CC(=O)O)C(=O)N[C@@H](CNC(=O)c1ccc([Si](F)(C(C)(C)C)C(C)(C)C)cc1)C(=O)N[C@@H](CCc1ccccc1)C(N)=O)[C@@H](C)O` [Peptide 4, H-L-His-Aib-L-Glu-Gly-L-Thr-L-(α-Me)Phe-L-Thr-L-Ser-L-Asp-L-Dap(SiFA)-L-homoPhe-NH2], in data set [2], the “maximal radioligand displacement (of maximal radioligand binding)” value is on record as 61–69%. Moreover, the concentration for half-maximal inhibition (IC50) in data set [3] was 2400 nM. In data set [3] (w/ BSA (1% BSA)), the “IC50 ± SD (result in words)” value is on record as “no detectable affinity”.
Taken in the same sequence, the figures for `C[C@@H](O)[C@H](NC(=O)CNC(=O)[C@H](CCC(=O)O)NC(=O)C(C)(C)NC(=O)[C@@H](N)Cc1c[nH]cn1)C(=O)N[C@@](C)(Cc1ccccc1F)C(=O)N[C@H](C(=O)N[C@@H](CO)C(=O)N[C@@H](CC(=O)O)C(=O)N[C@@H](CNC(=O)c1ccc([Si](F)(C(C)(C)C)C(C)(C)C)cc1)C(=O)N[C@@H](CCc1ccccc1)C(N)=O)[C@@H](C)O` [Peptide 5, H-L-His-Aib-L-Glu-Gly-L-Thr-L-(α-Me)Phe(2-F)-L-Thr-L-Ser-L-Asp-L-Dap(SiFA)-L-homoPhe-NH2] were 61–69%, 189 ± 35 nM and “no detectable affinity”.
In data set [3], `CC(C)C[C@H](NC(=O)[C@H](CNC(=O)c1ccc([Si](F)(C(C)(C)C)C(C)(C)C)cc1)NC(=O)[C@H](CO)NC(=O)[C@H](CO)NC(=O)[C@@H](NC(=O)[C@H](CC(=O)O)NC(=O)[C@H](CO)NC(=O)[C@@H](NC(=O)[C@](C)(Cc1ccccc1F)NC(=O)[C@@H](NC(=O)CNC(=O)[C@H](CCC(=O)O)NC(=O)C(C)(C)NC(=O)[C@@H](N)Cc1c[nH]cn1)[C@@H](C)O)[C@@H](C)O)C(C)C)C(=O)N[C@@H](CCC(=O)O)C(N)=O` [Peptide 10, H-L-His-Aib-L-Glu-Gly-L-Thr-L-(α-Me)Phe(2-F)-L-Thr-L-Ser-L-Asp-L-Val-L-Ser-L-Ser-L-Dap(SiFA)- L-Leu-L-Glu-NH2] (H-H[Aib]EGT[αMePhe(2-F)]TSDVSS[Dap](Benzoyl(4-SiFtBu2))LE-NH2) displayed an IC50 of 2950 ± 310 nM.
Still for that read-out and setting: the figure for `CC(C)C[C@H](NC(=O)[C@H](CNC(=O)c1ccc([Si](F)(C(C)(C)C)C(C)(C)C)cc1)NC(=O)[C@H](CO)NC(=O)[C@H](CCc1ccccc1)NC(=O)[C@@H](NC(=O)[C@H](CC(=O)O)NC(=O)[C@H](CO)NC(=O)[C@@H](NC(=O)[C@](C)(Cc1ccccc1F)NC(=O)[C@@H](NC(=O)CNC(=O)[C@H](CCC(=O)O)NC(=O)C(C)(C)NC(=O)[C@@H](N)Cc1c[nH]cn1)[C@@H](C)O)[C@@H](C)O)C(C)C)C(=O)N[C@@H](CCC(=O)O)C(N)=O` [Peptide 11, H-L-His-Aib-L-Glu-Gly-L-Thr-L-(α-Me)Phe(2-F)-L-Thr-L-Ser-L-Asp-L-Val-L-homoPhe-L-Ser-L-Dap(SiFA)-L-Leu-L-Glu-NH2] (H-H[Aib]EGT[αMePhe(2-F)]TSDV[hPhe]S[Dap](Benzoyl(4-SiFtBu2))LE-NH2) is 7120 ± 2470 nM.
On to “H-L-His-Aib-L-Glu-Gly-L-Thr-L-(α-Me)Phe(2-F)-L-Thr-L-Ser-L-Asp-L-Val-L-Dap(SiFA)-NH2 [Peptide 9]”, for which the “IC50 ± SD (result in words)” value in data set [3] (w/ and w/o BSA) is “no affinity was detected; also recorded: no detectable affinity n = 2 (w/ and w/o BSA)”.
Still for that read-out and setting: the entry for “H-L-His-Aib-L-Glu-Gly-L-Thr-L-(α-Me)Phe(2-F)-L-Thr-L-Ser-L-Asp-NH2 [Peptide 7]” is “no detectable affinity n = 2 (w/ and w/o BSA)”; for “H-L-His-Aib-L-Glu-Gly-L-Thr-L-(α-Me)Phe(2-F)-L-Thr-L-Ser-L-Asp-O2Oc-L/D-Dap(SiFA)-L-Leu-L-Glu-NH2 [Peptide 13]” it is “no radioligand displacement was observed; also recorded: no detectable affinity n = 2 (w/ and w/o BSA)”; for “H-L-His-Aib-L-Glu-Gly-L-Thr-L-(α-Me)Phe-L-Thr-L-Ser-L-Asp-L-Phe(4-I)-L-homoPhe-NH2 [Peptide 8]” it is “eliminated any detectable affinity; also recorded: no detectable affinity n = 2 (w/ and w/o BSA)”.
As to “H-L-His-Aib-L-Glu-Gly-L-Thr-L-(α-Me)Phe-L-Thr-L-Ser-L-Asp-OH [Peptide 6]”, the “IC50 ± SD (result in words)” value in data set [3] (w/ BSA (1% BSA)) was “no detectable affinity n = 1 (w/ BSA)”.
“[Nle^14, [^125I]Tyr(3-I)^40]exendin-4 [[^125I]Tyr(3-I)^40-3]”: the RCP is given as ≥ 95% (n = 4) in data set [4] (0 days after radioiodination, stock in HPLC solvent at −80 °C, n = 4); 95% in data set [4] (4 days after radioiodination, stock in HPLC solvent at −80 °C); 95% in data set [4] (9 days after radioiodination, stock in HPLC solvent at −80 °C); 92% in data set [4] (16 days after radioiodination, stock in HPLC solvent at −80 °C); 82% in data set [4] (20 days after radioiodination, stock in HPLC solvent at −80 °C); 82% in data set [4] (24 days after radioiodination, stock in HPLC solvent at −80 °C). The RCP in data set [4] (29 days after radioiodination, stock in HPLC solvent at −80 °C) is on record as 78%; in data set [4] (36 days after radioiodination, stock in HPLC solvent at −80 °C) it was 78%; in data set [4] (stock solution used to a maximum of 14 days, −80 °C) it was > 92%.

These data come from paper PMC8387526, “Small peptide-based GLP-1R ligands: an approach to reduce the kidney uptake of radiolabeled GLP-1R-targeting agents?” (EJNMMI Radiopharmacy and Chemistry, 2021).
